We go through 23 compounds from PubChem BioAssay (NCI).

Some test systems named below: HOP-18 NSCLC; HOP-62 NSCLC; SK-MEL-5 melanoma; 786-0 renal; DLD-1 colon; SNB-78 CNS; EKVX NSCLC; KM20L2 colon; MOLT-4 leukemia; A549 NSCLC; RXF 393 renal; BT-549 breast; MDA-N.
Common to all, as to assay: growth of human tumour cells (NCI), 48 h

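Growth conditions: 96-well plates. Treatment: test compound, 48 hours, 5 concentrations. Analysis: linear interpolation between bracketing concentrations; unreached endpoints set to highest concentration. The concentration for 50% growth inhibition is given as GI50. TGI: total growth inhibition.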 Where only a bound is given, the exact number is not on record here.

For the compound `O=C(O)CNCc1c2ccccc2[n+]([O-])c2ccccc12`, the TGI with HOP-18 NSCLC, in the experiment with HOP-62 NSCLC, in the experiment on SK-MEL-5 melanoma, with 786-0 renal, with DLD-1 colon and with SNB-78 CNS was more than 100 µM throughout. Further, the TGI in the experiment with EKVX NSCLC, with KM20L2 colon, in the experiment with MOLT-4 leukemia and in the experiment with A549 NSCLC was more than 100 µM each time.

Take `CSc1sc(=S)sc1SC`: the TGI with HOP-18 NSCLC, in the experiment with HOP-62 NSCLC, with SK-MEL-5 melanoma, with DLD-1 colon, in the experiment on SNB-78 CNS and with EKVX NSCLC was more than 100 µM in each case. The TGI in the experiment with KM20L2 colon, in the experiment with MOLT-4 leukemia, in the experiment with RXF 393 renal and with A549 NSCLC was more than 100 µM throughout.

`COc1cc2c3c(c4cc(OC)c(OC)cc4c2cc1OC)[C@H](O)[C@@H]1CCCN1C3`: the TGI was 0.57 µM in the experiment with HOP-62 NSCLC; 1.11 µM in the experiment on SK-MEL-5 melanoma; 0.938 µM with EKVX NSCLC; more than 100 µM in the experiment with MOLT-4 leukemia; 9.63 µM in the experiment on BT-549 breast; 1.28 µM in the experiment with RXF 393 renal. Moreover, in the experiment with A549 NSCLC, the TGI was found to be 2.56 µM.

Take `O=C(O)C(Br)Cc1ccc2c(c1)OCO2` (stereo not drawn): the TGI in the experiment with HOP-62 NSCLC, in the experiment on SK-MEL-5 melanoma, in the experiment with DLD-1 colon, with SNB-78 CNS, with EKVX NSCLC and in the experiment on KM20L2 colon was more than 100 µM in each case. Further, the TGI in the experiment on MOLT-4 leukemia, with RXF 393 renal and in the experiment with A549 NSCLC was more than 100 µM throughout.

Regarding `COC(=O)c1nc2c3c(cccc3c1C(=O)OC)Nc1ccccc1-2`, the TGI with HOP-62 NSCLC was 71.7 µM; in the experiment with SK-MEL-5 melanoma, 56.5 µM; with 786-0 renal, more than 100 µM; in the experiment on MDA-N, more than 100 µM; in the experiment with EKVX NSCLC, more than 100 µM; in the experiment on MOLT-4 leukemia it was more than 100 µM. The TGI with BT-549 breast, in the experiment on RXF 393 renal and with A549 NSCLC was more than 100 µM each time.

Turning to `CC1(C)N=C(N)N=C(N)N1c1cccc(OCc2cccc([N+](=O)[O-])c2)c1`, the TGI with HOP-62 NSCLC was more than 100 µM; with SK-MEL-5 melanoma, more than 88.7 µM; with 786-0 renal it was more than 100 µM; in the experiment on MDA-N, more than 100 µM; with EKVX NSCLC it was more than 100 µM; in the experiment with MOLT-4 leukemia, more than 100 µM. For the same compound, the TGI with BT-549 breast, with RXF 393 renal and with A549 NSCLC was more than 100 µM throughout.

Take `C=CC(c1ccccc1)C1(O)c2cccc(O)c2C(=O)c2c(O)cccc21` (stereo not drawn): the TGI in the experiment on HOP-62 NSCLC was determined as 41.1 µM; with SK-MEL-5 melanoma, 32 µM; in the experiment with 786-0 renal, 31.1 µM; in the experiment on MDA-N it was 20.7 µM; in the experiment with EKVX NSCLC it was 38.6 µM; with MOLT-4 leukemia it was 46.8 µM. The TGI in the experiment on BT-549 breast amounted to 34.8 µM; with RXF 393 renal it was 29.1 µM; in the experiment with A549 NSCLC, 32.9 µM.

Regarding `CCCCCCCCCCCCCCCCOCCCOP(=O)(O)C1CCCN(O)C1=O` (stereo not drawn), the GI50 with HOP-62 NSCLC was 837 nM; with SK-MEL-5 melanoma, 3740 nM; in the experiment with EKVX NSCLC, 3600 nM; with MOLT-4 leukemia, 1600 nM; with RXF 393 renal it was 1900 nM; in the experiment with A549 NSCLC, 3560 nM. Besides, the TGI was 18.6 µM with HOP-62 NSCLC; 14.7 µM in the experiment on SK-MEL-5 melanoma; 16.3 µM in the experiment on EKVX NSCLC; 19.7 µM in the experiment with MOLT-4 leukemia; 12.2 µM in the experiment with RXF 393 renal; 14.4 µM with A549 NSCLC.

On to `S=C1NN=C2C(=C3CCCC4C5CCCCC5N2C34)N1` (stereo not drawn), for which the TGI in the experiment with HOP-62 NSCLC, with SK-MEL-5 melanoma, with MOLT-4 leukemia, in the experiment on BT-549 breast and in the experiment on A549 NSCLC was more than 100 µM throughout.

Consider `O=C1c2ccccc2C(=O)c2c(O)c(O)cc(O)c21`, for which the TGI with HOP-62 NSCLC is 69.9 µM; in the experiment on SK-MEL-5 melanoma, more than 100 µM; in the experiment on 786-0 renal, more than 100 µM; in the experiment with DLD-1 colon, more than 100 µM; in the experiment on SNB-78 CNS, more than 100 µM; in the experiment with EKVX NSCLC it was more than 100 µM. Moreover, the results for the TGI in the experiment on MOLT-4 leukemia, with RXF 393 renal and in the experiment on A549 NSCLC were 97.9 µM, 85.4 µM and more than 100 µM, respectively.

Consider `C/C(=C\COP(=O)(O)OP(=O)(O)O)CC/C=C(\C)CNc1ccc([N+](=O)[O-])cc1`, for which the TGI with HOP-62 NSCLC, in the experiment on SK-MEL-5 melanoma, in the experiment on 786-0 renal, in the experiment on EKVX NSCLC, in the experiment on MOLT-4 leukemia and with RXF 393 renal was more than 100 µM each time. In addition, the TGI in the experiment with A549 NSCLC was more than 100 µM.

For `COc1ccc2c(c1)/C(=C\c1cccc(/C=C3/C(=O)Nc4ccc(OC)cc43)n1)C(=O)N2`, the TGI with HOP-62 NSCLC was 5.07 µM; in the experiment on SK-MEL-5 melanoma it was 2.24 µM; with 786-0 renal, 2.55 µM; with EKVX NSCLC, more than 40.3 µM; with MOLT-4 leukemia, 0.802 µM; with BT-549 breast it was 6.39 µM. Also, the TGI with RXF 393 renal was 2.89 µM; with A549 NSCLC, more than 100 µM.

As for `COc1ccc(/C=C/[N+](=O)[O-])cc1`, the TGI with HOP-62 NSCLC was more than 100 µM; with SK-MEL-5 melanoma, 30.2 µM; in the experiment on 786-0 renal, more than 100 µM; in the experiment on EKVX NSCLC, 41 µM; with MOLT-4 leukemia, 12.8 µM.

Turning to `C#C[C@@]1(O)[C@@H](CO)O[C@@H](n2cc(F)c3c(N)ncnc32)[C@@H]1O`, the GI50 with HOP-62 NSCLC was 571 nM; in the experiment on SK-MEL-5 melanoma it was 267 nM; in the experiment on EKVX NSCLC, 675 nM; in the experiment with MOLT-4 leukemia, 304 nM; in the experiment on BT-549 breast it was 843 nM; in the experiment with RXF 393 renal, 727 nM. Moreover, in the experiment with A549 NSCLC, the GI50 was 377 nM. The TGI in the experiment with HOP-62 NSCLC is 7.79 µM; in the experiment with SK-MEL-5 melanoma, 1.33 µM; with EKVX NSCLC, 11.3 µM; in the experiment on MOLT-4 leukemia it was more than 100 µM; in the experiment with BT-549 breast, 4.18 µM; in the experiment on RXF 393 renal, 2.99 µM. This compound also displayed a TGI with A549 NSCLC of 2.64 µM.

Regarding `N#CC1=C(N)Nc2nc3ccccc3n2C1c1ccccc1` (stereo not drawn), the TGI in the experiment on HOP-62 NSCLC was more than 100 µM; in the experiment with SK-MEL-5 melanoma, more than 100 µM; in the experiment on 786-0 renal it was more than 100 µM; with EKVX NSCLC it was 57.4 µM; in the experiment on MOLT-4 leukemia it was more than 100 µM; in the experiment on BT-549 breast, 62.4 µM. Moreover, the TGI in the experiment with RXF 393 renal is 56.3 µM; with A549 NSCLC it was more than 100 µM.

Consider `C[C@H](CCC1=NCCN1)[C@H]1CC[C@H]2[C@@H]3CC[C@@H]4C[C@H](O)CC[C@]4(C)[C@H]3CC[C@]12C`, for which the TGI in the experiment on HOP-62 NSCLC turned out to be 20.9 µM; in the experiment on SK-MEL-5 melanoma, 3.45 µM; in the experiment on MDA-N, 29.5 µM; in the experiment with EKVX NSCLC it was 30.1 µM; in the experiment on MOLT-4 leukemia, 8.79 µM; in the experiment with BT-549 breast, 33.4 µM. The TGI with RXF 393 renal amounted to 55.2 µM; with A549 NSCLC, 22.4 µM.

Regarding `O=C1OC2(c3ccc(O)cc3Oc3cc(O)ccc32)c2c1c(-c1ccccc1)c(-c1ccccc1)c(-c1ccccc1)c2-c1ccccc1`, the TGI stood at 67.8 µM with HOP-62 NSCLC; 54 µM with SK-MEL-5 melanoma; 75.6 µM in the experiment on 786-0 renal; 44.9 µM in the experiment on MDA-N; 59.1 µM with EKVX NSCLC; 56.9 µM in the experiment with MOLT-4 leukemia. The TGI was 53.8 µM in the experiment with BT-549 breast, 67.2 µM in the experiment on RXF 393 renal and more than 100 µM in the experiment with A549 NSCLC.

As for `Nc1nncs1`, the TGI in the experiment with HOP-18 NSCLC was more than 5000 µM; in the experiment with HOP-62 NSCLC it was 1700 µM; in the experiment on SK-MEL-5 melanoma it was more than 5000 µM; in the experiment on 786-0 renal, more than 5000 µM; in the experiment on MDA-N it was more than 5000 µM; in the experiment with DLD-1 colon it was more than 5000 µM. The TGI in the experiment on SNB-78 CNS was more than 4420 µM; with EKVX NSCLC, more than 5000 µM; in the experiment on KM20L2 colon, more than 4800 µM; in the experiment with MOLT-4 leukemia, more than 4900 µM; in the experiment with BT-549 breast, more than 5000 µM; with RXF 393 renal, more than 5000 µM. The compound further came in with a TGI with A549 NSCLC of 4980 µM.

As to `NC(=O)c1cc(C2OC(CO)C(O)C2O)nn1-c1ccc([N+](=O)[O-])cc1` (stereo not drawn), the TGI with HOP-18 NSCLC, in the experiment with HOP-62 NSCLC, in the experiment with SK-MEL-5 melanoma, with DLD-1 colon, with SNB-78 CNS and with EKVX NSCLC was more than 100 µM in each case. Moreover, the TGI in the experiment with KM20L2 colon, with MOLT-4 leukemia, in the experiment with RXF 393 renal and with A549 NSCLC was more than 100 µM each time.

Take `N#CC(C#N)=C1CCCCc2ccc([N+](=O)[O-])cc21`: the TGI in the experiment on HOP-62 NSCLC was more than 100 µM; in the experiment with SK-MEL-5 melanoma it was more than 100 µM; with 786-0 renal it was 33 µM; in the experiment with MDA-N it was more than 100 µM; in the experiment with EKVX NSCLC, more than 100 µM; in the experiment with MOLT-4 leukemia it was more than 100 µM. Moreover, the TGI in the experiment on BT-549 breast, in the experiment with RXF 393 renal and in the experiment with A549 NSCLC was more than 100 µM throughout.

Consider `COc1cc2c3c(n(C4CCNCC4)c(=O)c2cc1OC)-c1cc2c(cc1C3=O)OCO2`, for which, in the experiment with SK-MEL-5 melanoma, the GI50 was 322 nM and the TGI is 1.46 µM.

With `O=C(O)Cc1[nH]cnc1C(=O)O`, the TGI in the experiment on HOP-62 NSCLC, in the experiment on SK-MEL-5 melanoma, in the experiment with 786-0 renal, in the experiment with MDA-N, with EKVX NSCLC and in the experiment with MOLT-4 leukemia was more than 100 µM in each case. Further, the TGI in the experiment on BT-549 breast, in the experiment on RXF 393 renal and in the experiment on A549 NSCLC was more than 100 µM throughout.

As to `CSc1ccc(-c2cc(-c3nc4ccccc4[nH]3)nc3[nH]c(-c4nc5ccccc5[nH]4)cc(=O)c23)cc1`, the TGI in the experiment with HOP-62 NSCLC, in the experiment with 786-0 renal, with EKVX NSCLC, in the experiment on MOLT-4 leukemia, in the experiment with BT-549 breast and with RXF 393 renal was more than 100 µM each time. Besides, the TGI with A549 NSCLC was more than 100 µM.
